Laboratory results: US20080280933A1, “BENZIMIDAZOLYL COMPOUNDS” (priority 2006, published 2008)

target: T1, mGluR2 receptor (metabotropic glutamate receptor 2) (Homo sapiens, UniProt Q14416); experiment: mGluR2 Potentiator Screen, FLIPR, EC10-EC20 glutamate challenge; type: cell-based; conditions: EC50 (uM)
T1 construct: expressed in transfected cells
Protocol: Procedure for mGluR2 Potentiator Screen NLB Methods EC10-EC20 Challenge Cell Culture and Plating:
Cells used for this screen are HEK cells stably transfected with the mGluR2 receptor (metabotropic glutamate receptor 2) and the Gα15 G protein. Clones were identified by functional activity (FLIPR). Cells are grown in growth media containing: DMEM High Glucose with Glutamine and Na Pyruvate (GIBCO), 10% (v/v) Heat inactivate FBS (GIBCO) G418 500 ug/ml (from 50 mg/ml stock) (GIBCO) and Blasticidin 3 ug/ml (from 5 mg/ml stock made in H2O) (Invitrogen).
2 days before the assay cell are trypsinized with 0.25% trysin/EDTA (GIBCO), spun down at 1000 rpm for 5 minutes, resuspended in growth media and plated on polystyrene 384 well black wall/clear bottom poly-D-lysine coated plates at a density of approximately 18,000 cells/well in a volume of 50 μL per well. One day before the assay the growth media is removed from the plates by flicking and replaced with media containing DMEM High Glucose without Glutamine and Na Pyruvate (GIBCO) and 10% (v/v) dialyzed FBS (GIBCO). The reason for the removal of glutamine the day before the assay is to minimize the amount of glutamate that will be present during the assay, as endogenous glutarnate released from the cells can reduce the fluorescent response and interfere with the FLIPR screen.
FLIPR Methods and Data Analysis:
On the day of the assay, the FLIPR assay is performed using the following methods:
The pH is adjusted to 7.4 with 1M NaOH. Prepare a 2 mM (approx.) stock solution of Fluo-4.am (Molecular Probes) dye in DMSO −22 μl DMSO per 50 ug vial (440 μL per 1 mg vial). Make a 1 mM (approx.) flou-4, PA working solution per vial by adding 22 μl of 20% pluronic acid (PA) (Molecular Probes) in DMSO to each 50 ug vial (440 μL per 1 mg vial). Prepare a 250 mM Probenecid (Sigma) stock solution by dissolving 0.71 g into 5 ml 1N NaOH and 5 ml assay buffer (for each liter of assay wash buffer). Make 4 uM (approx.) dye incubation media by adding 2.50 ug vials per 11 ml DMEM high glucose without glutamine (220 ml per 1 mg vial). Add 110 μL probenecid stock per 11 ml (2.5 mM final [concentration]). To the dye media add 3 units/ml of glutamic-pyruvic transaminase (GPT, Sigma) and 3 mM Na Pyruvate. The assay has worked with dye concentrations from 2 uM to 8 uM dye as well. To the assay buffer from drug preparation, add 1.83 mls DMSO and 400 μL. 15.8% P104 (from New Leads biology) per liter for final concentrations of 0.18% DMSO and 0.006% P104. To the assay buffer for cell washing, add probenecid in the same manner and concentration that was used for the dye media.
Remove growth media from cell plates by flicking. Add 50 μl/well dye solution. Incubate 1 hour at 37° C. and 5% CO2. Remove dye solution and wash 3 times with assay buffer+probenecid (100 μl probenecid stock per 10 ml buffer), leaving 30 μL/well assay buffer. Wait at least 10-15 minutes. Compounds and agonist challenge additions are performed with the FLIPR. The in addition is for test compounds, which are added as 15 μL of 4× [concentration] of potentiator. The second 2nd addition is 15 μL of 4× [concentration] of agonist or challenge. This achieves 1× concentration of all compounds only after 2nd addition. The 1st and 2nd additions are performed separately using the FLIPR, which give 2 different data files. Compounds are pretreated at least 30 minutes before agonist addition.
Results are analyzed by dividing the peak fluorescent value of the FLIPR response by the […] to achieve a ratio response. The ratios are then analyzed by curve fitting programs. Since potent compounds can give an inverted U dose response curve (due to effects on endogenous glutamate by the potentiators) points are deleted at concentrations higher than the concentration that gives the maximum effect. Maximum values for dose response curves (forced fitting) are derived from standards on the plate.
Compound Preparation and Glutamate Challenge: […]

T1 sequence (Q14416 19-872, species assumed): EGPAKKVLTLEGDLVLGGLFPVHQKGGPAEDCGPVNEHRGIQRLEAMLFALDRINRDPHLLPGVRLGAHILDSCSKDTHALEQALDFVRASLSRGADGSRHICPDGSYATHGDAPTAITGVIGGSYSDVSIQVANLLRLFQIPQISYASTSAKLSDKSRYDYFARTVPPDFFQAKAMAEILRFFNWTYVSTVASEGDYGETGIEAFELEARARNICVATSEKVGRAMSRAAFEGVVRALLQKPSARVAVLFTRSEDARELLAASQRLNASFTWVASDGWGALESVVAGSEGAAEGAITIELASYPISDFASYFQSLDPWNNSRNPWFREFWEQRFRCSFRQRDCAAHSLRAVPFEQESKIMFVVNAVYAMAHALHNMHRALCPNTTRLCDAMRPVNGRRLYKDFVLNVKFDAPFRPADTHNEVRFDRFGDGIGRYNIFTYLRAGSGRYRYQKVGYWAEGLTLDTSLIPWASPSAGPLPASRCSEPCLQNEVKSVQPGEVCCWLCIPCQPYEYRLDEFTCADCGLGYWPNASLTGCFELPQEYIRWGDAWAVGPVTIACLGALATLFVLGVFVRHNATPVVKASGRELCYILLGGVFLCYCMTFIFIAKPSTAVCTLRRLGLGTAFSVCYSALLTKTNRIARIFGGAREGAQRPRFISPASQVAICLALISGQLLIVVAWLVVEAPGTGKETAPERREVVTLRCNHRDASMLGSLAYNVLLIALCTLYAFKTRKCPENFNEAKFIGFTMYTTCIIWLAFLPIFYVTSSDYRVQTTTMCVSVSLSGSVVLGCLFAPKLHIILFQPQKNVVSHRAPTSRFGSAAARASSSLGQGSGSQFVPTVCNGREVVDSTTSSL

| Compound | EC50 |
| --- | --- |
| Cn1c(CN2CCC(C#N)(c3ccccc3)CC2)nc2ccccc21 [compound 77] | > 4.71 µM |

same assay, conditions: mGluR2 potentiator screen, Table 7; read-out: EC50

| Compound | EC50 |
| --- | --- |
| Cn1c(CN2CCC(c3cc(Cl)ccc3OCC3CCC3)CC2)nc2ccccc21 [compound 194] | 0.473 µM |
| COc1ccc(OC)c(C2CCN(Cc3nc4c(Br)cccc4n3C)CC2)c1 [compound 165] | 2.66 µM |
| Clc1ccc(OCC2CCC2)c(C2CCN(Cc3nc4ccccc4n3C3CC3)CC2)c1 [compound 192] | 2.26 µM |
| CC[C@H](C)COc1ccc(Cl)cc1C1CCN(Cc2nc3ccccc3n2CCF)CC1 [compound 173] | 1.7 µM |

same assay, conditions: read-out: EC50

| Compound | EC50 |
| --- | --- |
| 2-((4-(2-Fluorophenyl)piperidin-1-yl)methyl)-3-methyl-3H-benzo[d]imidazole-5-carbonitrile [Entry 275] | 2.62 µM |
| CC(Oc1ccccc1C1CCN(Cc2nc3ccccc3n2C)CC1)c1ccccc1 (stereo not drawn) [compound 103] | > 5.64 µM |
| Cn1c(CN2CCC(c3ccccc3OCC3CCC3)CC2)nc2ccccc21 [compound 84] | 0.744 µM |
| C[C@@H]1CN(Cc2nc3ccccc3n2C)CC[C@@H]1c1ccc(F)c(F)c1 (single isomer, unassigned) [Entry 472, 2-{[Cis-4-(3,4-Difluoro-phenyl)-3-methyl-piperidin-1-yl]methyl}-1-methyl-1H-benzoimidazole] | 0.152 µM |
| CCCCOc1ccccc1C1CCN(Cc2nc3ccccc3n2C)CC1 [compound 95] | 1.04 µM |
| COC(=O)c1cccc([C@]2(C)CCN(Cc3nc4ccccc4n3C)C[C@@H]2C)c1 [compound 81] | 6.08 µM |
| Cn1c(CN2CCC3(CC2)CN(C(=O)c2ccco2)c2ccccc23)nc2ccccc21 [compound 63] | 4.51 µM |
| C[C@@H]1CN(Cc2nc3ccccc3n2C)CC[C@@H]1c1ccc(C(F)(F)F)cc1Cl (relative stereo) [compound 467] | 0.0531 µM |
| Cn1c(CN2CCC(c3cc(C(F)(F)F)cc(C(F)(F)F)c3)CC2)nc2ccccc21 [compound 348] | 0.201 µM |
| CCN1CC2(CCN(Cc3nc4ccccc4n3C)CC2)c2cc(F)ccc21 [compound 114] | 2.38 µM |
| Cn1c(CN2CCC(F)(c3ccc(Cl)cc3)CC2)nc2ccccc21 [compound 432] | 0.257 µM |
| Cn1c(CN2CCC(c3ccccc3F)CC2)nc2cc(Br)ccc21 [compound 269] | 0.445 µM |
| COc1ccc2nc(CN3CCC(c4ccccc4F)CC3)n(C)c2c1 [Entry 278, 2-((4-(2-fluorophenyl)piperidin-1-yl)methyl)-6-methoxy-1-methyl-1H-benzo[d]imidazole] | 0.0466 µM |
| Cn1c(CN2CCC3(CC2)CN(C(=O)c2cccc(C#N)c2)c2ccccc23)nc2ccccc21 [compound 55] | 3.01 µM |
| CCCCN1CC2(CCN(Cc3nc4ccccc4n3C)CC2)c2ccccc21 [compound 132] | 1.34 µM |
| COc1ccc(Cl)cc1C1CCN(Cc2nc3ccccc3n2C)CC1 [compound 231] | 0.115 µM |
| Cn1c(CN2CCC(c3ccc(C(F)(F)F)cc3)CC2)nc2cc(C#N)ccc21 [compound 317] | 0.0907 µM |
| Cn1c(CN2CCC(c3ccccc3F)CC2)nc2cc(CO)ccc21 [Entry 297, (2-((4-(2-Fluorophenyl)piperidin-1-yl)methyl)-1-methyl-1H-benzo[d]imidazol-5-yl)methanol] | 0.169 µM |
| COc1ccccc1C1CCN(Cc2nc3cc(N)ccc3n2C)CC1 [compound 281] | 1.51 µM |
| Cn1c(CN2CCC3(CC2)CN(Cc2cccnc2)c2ccc(Cl)cc23)nc2ccccc21 [compound 108] | > 8.73 µM |
| CCCN1CC2(CCN(Cc3nc4ccccc4n3C)CC2)c2cc(C)ccc21 [compound 144] | 2.37 µM |
| CC(C)COc1ccccc1C1CCN(Cc2nc3ccccc3n2C)CC1 [compound 96] | > 3.92 µM |
| Cn1c(CN2CCC(c3ccccc3F)CC2)nc2ccc(-c3ccccc3)cc21 [Entry 276, 2-((4-(2-Fluorophenyl)piperidin-1-yl)methyl)-1-methyl-6-phenyl-1H-benzo[d]imidazole] | 0.204 µM |
| COc1cccc(C2CCN(Cc3nc4ccccc4n3C)CC2)c1 [compound 65] | 0.241 µM |
| CC(C)Oc1ccccc1C1CCN(Cc2nc3cc(Cl)ccc3n2C)CC1 [compound 379] | 1.57 µM |
